# Results from patent US20120003661A1, “METHODS AND DEVICES FOR THE SELECTIVE DETECTION OF MICROORGANISMS” (C3 JIAN, INC., priority 2010, published 2012).
# Entries after “also recorded” stand apart in the source; their conditions may differ.
# Test system: bacteria, fungi, and/or yeasts
# Format: binding
# Settings: microorganism(s) listed as target(s) of the targeting peptide; wrapped target lists given cell by cell
row,Substance,Target(s)
1,1T-284 (FQYYFSLKRV),"A. naeslundii, F. nucleatum, P. gingivalis,; also recorded: S. gordonii, S. mitis,; also recorded: S. mutans, S. oralis, S. salivarious,; also recorded: S. sanguinis"
2,PF-037 (MTKKRRYDTTEFGLAHSMTAKITLHQALYK),"S. epidermidis, M. luteus, P. aeruginosa,; also recorded: C. albicans, MRSA,; also recorded: S. pneumoniae, E. faecalis, C. jeikeium"
3,PF-057 (TMIVISIPRFEEYMKARHKKWM),"S. epidermidis, M. luteus, P. mirabilis,; also recorded: E. coli, P. aeruginosa,; also recorded: C. albicans, MRSA, S. pneumoniae,; also recorded: E. faecalis, C. jeikeium,; also recorded: C. jejuni"
4,1T-271 (FLIQKFLLIKTFPPYRKKYVVIVSQTGTA),"A. naeslundii, F. nucleatum, P. gingivalis,; also recorded: S. epidermidis, S. gordonii,; also recorded: S. mitis, S. mutans, S. oralis,; also recorded: S. salivarious, S. sanguinis"
5,PF-136 (LRGRVGRITACGYPP),"S. epidermidis, M. luteus, P. mirabilis,; also recorded: E. coli, MRSA, E. faecalis,; also recorded: C. jeikeium, C. jejuni, M. smegmatis"
6,PF-004 (ARLSKAIIIAVIVVYHLDVRGLF),"S. epidermidis, B. subtilis, B. fragilis,; also recorded: E. coli, P. aeruginosa, C. albicans,; also recorded: S. pneumoniae, E. faecalis,; also recorded: C. jeikeium"
7,TT-308 (GLVIIPNLIALIILFSQVRQQTKDYFSNPKLSSR),F. nucleatum
8,1T-296 (EYSQQSFKAKPCSERGVLSP),"A. naeslundii, F. nucleatum, P. gingivalis,; also recorded: S. gordonii, S. mitis,; also recorded: S. mutans, S. oralis, S. salivarious,; also recorded: S. sanguinis"
9,1T-289 (EPSADIYLSAKDTKT),"F. nucleatum, P. gingivalis, S. gordonii,; also recorded: S. mitis, S. mutans, S. oralis,; also recorded: S. sanguinis"
10,PF-099 (EIIAYLEGRFANA),"S. epidermidis, M. luteus, E. coli,; also recorded: C. jeikeium"
11,PF-629 (GLAAIATVFALY),yeast and hyphal forms
12,PF-144 (RSGQPVGRPSRRAWLR),"S. epidermidis, M. luteus, E. coli,; also recorded: C. albicans, MRSA, S. pneumoniae,; also recorded: E. faecalis, C. jeikeium"
13,PF-173 (AGRTAIVQGGG),"S. epidermidis, M. luteus, P. mirabilis,; also recorded: E. coli, P. aeruginosa,; also recorded: C. albicans, C. jeikeium, C. jejuni"
14,1T-275 (QVLKNFSISRRYKINNPFFKILLFIQLRTL),"A. naeslundii, F. nucleatum, P. gingivalis,; also recorded: T. denticola, S. epidermidis,; also recorded: S. gordonii, S. mitis,; also recorded: S. mutans, S. oralis, S. salivarious,; also recorded: S. sanguinis"
15,1T-263 (FIAVSFTGNPATFKLVIGCKADN),"A. naeslundii, F. nucleatum, P. gingivalis,; also recorded: S. epidermidis, S. gordonii,; also recorded: S. mitis, S. oralis, S. salivarious,; also recorded: S. sanguinis"
16,PF-053 (KLFGQWGPELGSIYILPALIGSIILIAIVTLILRAMRK),"S. epidermidis, M. luteus, E. coli,; also recorded: P. aeruginosa, C. albicans,; also recorded: MRSA, S. pneumoniae, E. faecalis"
17,PF-162 (GIRRLHSVENLNREISHRMAGLR),"S. epidermidis, MRSA"

# Same assay, conditions: microorganism(s) that the targeting peptide binds, as listed in Table 2
row,Substance,Target(s)
1,PF-C180 (TVEELDKAFTWGAAAALAIGVIAINVGLAAGYCYNNNDVF),"F. nucleatum, P. gingivalis, S. mutans,; also recorded: T. denticola"
2,PF-S015 (IENLERGARRPP),"S. epidermidis, MRSA, C. jeikeium"
3,PF-800 (WYYFDNNGYM),S. mutans
4,PF-X (TFFRLFNRSFTQALGK),S. mutans

# Same assay, conditions: microorganism(s) the targeting peptide binds, as listed in Table 2
row,Substance,Target(s)
1,1T-61 (HATLLPAVREAISRQLLPALVPRG),P. aeruginosa
2,1T-113 (HGAHQRTGQRLHHHRGRTVSGCRQNPVAGVDPDEHR),S. mitis
3,1T-98 (VRSAKAVKALTAAGYTGELVNVSGGMKAWLGQ),"A. naeslundii, F. nucleatum, P. gingivalis,; also recorded: S. epidermidis, S. gordonii,; also recorded: S. mitis, S. mutans, S. oralis,; also recorded: S. salivarious, S. sanguinis"
4,1T-25 (VGLDVSVLVLFFGLQLLSVLLGAMIR),"S. aureus, S. epidermidis, C. xerosis,; also recorded: C. striatum, P. aeruginosa"
5,1T-54 (RWVSCNPSWRIQ),"S. epidermidis, C. xerosis, C. striatum,; also recorded: P. aeruginosa"
6,1T-112 (SDNDGKLILGTSQ),S. gordonii
7,1T-124 (LFDERNKIA),"S. mitis, S. mutans, S. oralis"
8,1T-7 (SQRIIEPVKSPQPYPGFSVS),M. xanthus
9,1T-89 (HEDDKRRGMSVEVLGFEVVQHEE),"S. mitis, S. mutans"
10,1T-74 (DIDWGRKISCAAGVAYGAIDGCATTV),S. pneumoniae
11,1T-69 (ILSQEADRKKLF),"S. mutans, P. aeruginosa"
12,1T-152 (YVSADESAYNHIVTDDIPLADRRIEAVQQ),"A. naeslundii, F. nucleatum, P. gingivalis,; also recorded: S. epidermidis, S. gordonii,; also recorded: S. mitis, S. mutans, S. oralis,; also recorded: S. salivarious, S. sanguinis"
13,1T-151 (SVRAVKPIDEIVAWHFPGDFIVN),"A. naeslundii, F. nucleatum, P. gingivalis,; also recorded: T. denticola, S. gordonii,; also recorded: S. mitis, S. mutans, S. oralis,; also recorded: S. salivarious, S. sanguinis"
14,1T-78 (FFKTIFVLILGALGVAAGLYIEKNYIDK),S. pneumoniae
15,1T-37 (YIVGALVILAVAGLIYSMLRKA),"S. mutans, S. aereus, S. epidermidis,; also recorded: C. jeikeium, C. xerosis,; also recorded: C. striatum, P. aeruginosa"
16,1T-12 (FGNIFKGLKDVIETIVKWTAAK),"C. xerosis, C. striatum, S. epidermidis,; also recorded: S. mutans"
17,1T-94 (DQVAHSGDMLVQARRRDS),"S. mitis, S. mutans, S. oralis"
18,1T-11 (RISE),"S. mutans, S. epidermidis, P. aeruginosa"
19,1T-102 (WKRLWPARILAGHSRRRMRWMVVWRYFAAT),"A. naeslundii, F. nucleatum, P. gingivalis,; also recorded: S. epidermidis, S. gordonii,; also recorded: S. mitis, S. mutans, S. oralis,; also recorded: S. salivarious, S. sanguinis"
20,1T-8 (FSVAACGEQRAVTFVLLIEDLI),M. xanthus
21,1T-181 (YGKESDP),"A. naeslundii, F. nucleatum, P. gingivalis,; also recorded: T. denticola, S. gordonii,; also recorded: S. mitis, S. mutans, S. oralis,; also recorded: S. salivarious, S. sanguinis"
22,1T-178 (LLASHPERLSLGVFFVYRVLHLLLENT),"A. naeslundii, F. nucleatum, P. gingivalis,; also recorded: S. epidermidis, S. gordonii,; also recorded: S. mitis, S. mutans, S. oralis,; also recorded: S. salivarious, S. sanguinis"
23,1T-198 (MPVSKKRYMLSSAYATALGICYGQVATDEKESEITAIPDLLDYLSVEEYLL),"P. gingivalis, S. epidermidis, S. gordonii,; also recorded: S. mitis, S. mutans, S. oralis,; also recorded: S. sanguinis"
24,1T-27 (ALFVSLEQFLVVVAKSVFALCHSGTLS),"S. mutans, S. aureus, S. epidermidis,; also recorded: C. jeikeium, C. xerosis,; also recorded: C. striatum, P. aeruginosa"
25,1T-44 (DPALADFAAGMRAQVRT),"S. mutans, S. aureus, S. epidermidis,; also recorded: C. jeikeium, C. striatum,; also recorded: P. aeruginosa"
26,1T-170 (AYGKVFSMDIMLSENDKLIVLRISHHSAWH),P. gingivalis
27,1T-137 (PLNFYRAVKENRLPLSEKNINDFTNIKLKVSPKLINLLQESSIFYNFSPKKRNTN),"A. naeslundii, F. nucleatum, P. gingivalis,; also recorded: S. epidermidis, S. gordonii,; also recorded: S. mitis, S. mutans, S. oralis,; also recorded: S. salivarious, S. sanguinis"
28,1T-107 (SPVPRFTAVGGVSRGSP),"A. naeslundii, S. epidermidis, S. gordonii,; also recorded: S. mitis, S. mutans, S. oralis,; also recorded: S. salivarious, S. sanguinis"
